From patent US5242930A, “Azabicyclic compounds, pharmaceutical compositions containing them and their use in therapy” (Merck Sharp & Dohme Ltd., priority 1991, dated 1993)
Counter-ions that a name gives are not always drawn.

Each molecule was assayed on longitudinal muscle of guinea pig ileum (assay: Antagonism of the contraction elicited by SPOMe (substance P methyl ester) on guinea pig ileum longitudinal muscle (isometric contraction)). Details: Cavia porcellus, compound at 1.0 μM, 0.1μM SPOMe.

Row | SMILES | inhibition at 1 µM
1 | COc1ccc(CO[C@H]2C3CCN(CC3)[C@H]2C(c2ccccc2)c2ccccc2)cc1 (relative stereo) [Example 8, cis-2-(Diphenylmethyl)-3-(4-methoxybenzyloxy)-1-azabicyclo[2.2.2]octane oxalate] | > 70%
2 | FC(F)(F)c1ccccc1CO[C@H]1C2CCN(CC2)[C@H]1C(c1ccccc1)c1ccccc1 (relative stereo) [Example 2, cis-2-(Diphenylmethyl)-3-[2-(trifluoromethyl)benzyloxy]-1-azabicyclo[2.2.2]octane oxalate] | > 70%
3 | Fc1cc(F)cc(CO[C@H]2C3CCN(CC3)[C@H]2C(c2ccccc2)c2ccccc2)c1 (relative stereo) [Example 7, cis-3-(3,5-Difluorobenzyloxy)-2-(diphenylmethyl)-1-azabicyclo[2.2.2]octane oxalate] | > 70%
4 | Clc1cccc(CO[C@H]2C3CCN(CC3)[C@H]2C(c2ccccc2)c2ccccc2)c1 (relative stereo) [Example 4, cis-3-(3-Chlorobenzyloxy)-2-(diphenylmethyl)-1-azabicyclo[2.2.2]octane oxalate] | > 70%
5 | O=[N+]([O-])c1cccc(CO[C@H]2C3CCN(CC3)[C@H]2C(c2ccccc2)c2ccccc2)c1 (relative stereo) [Example 1, cis-2-(Diphenylmethyl)-3-(3-nitrobenzyloxy)-1-azabicyclo[2.2.2]octane oxalate] | > 70%
